Data taken from patent publication US20240269139A1, “COMPOUNDS FOR TARGETED PROTEIN DEGRADATION OF KINASES” (DANA-FARBER CANCER INSTITUTE, INC., priority 2020, published 2024).
“And” between values parts separate entries of the source, which are not always exact repeats. Equal values may be shown once. Read-outs that look alike come from different tables or passages of the source.

Legend:
Format in all cases: cell-based
[1] = biological target: protein kinases (human kinome) (Homo sapiens, UniProt P07947); conditions: YES1 (P07947), experiment wp133, 4 hr
[2] = biological target: protein kinases (human kinome) (Homo sapiens, UniProt P24941)
[3] = biological target: protein kinases (human kinome) (Homo sapiens, UniProt Q8NI60)
protein kinases (human kinome) (Homo sapiens, UniProt Q8NI60), sequence (Q8NI60 163-647): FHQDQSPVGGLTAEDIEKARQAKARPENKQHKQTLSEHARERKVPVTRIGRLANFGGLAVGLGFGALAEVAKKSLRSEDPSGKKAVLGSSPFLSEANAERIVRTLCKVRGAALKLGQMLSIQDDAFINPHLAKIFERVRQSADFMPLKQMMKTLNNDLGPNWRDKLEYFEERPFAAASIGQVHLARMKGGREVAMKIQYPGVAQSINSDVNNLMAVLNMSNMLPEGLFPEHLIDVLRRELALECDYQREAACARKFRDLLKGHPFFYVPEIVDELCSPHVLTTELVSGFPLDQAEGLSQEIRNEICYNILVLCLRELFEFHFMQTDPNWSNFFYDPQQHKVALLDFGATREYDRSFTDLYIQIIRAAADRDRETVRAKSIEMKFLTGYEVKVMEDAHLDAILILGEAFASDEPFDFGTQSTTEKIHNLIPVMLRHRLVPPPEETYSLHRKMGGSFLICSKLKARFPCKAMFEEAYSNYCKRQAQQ

[4] = biological target: protein kinases (human kinome) (Homo sapiens, UniProt Q14004); conditions: for logFC CDK13: Accession Q14004-1
protein kinases (human kinome) (Homo sapiens, UniProt Q14004), sequence (Q14004 whole entry): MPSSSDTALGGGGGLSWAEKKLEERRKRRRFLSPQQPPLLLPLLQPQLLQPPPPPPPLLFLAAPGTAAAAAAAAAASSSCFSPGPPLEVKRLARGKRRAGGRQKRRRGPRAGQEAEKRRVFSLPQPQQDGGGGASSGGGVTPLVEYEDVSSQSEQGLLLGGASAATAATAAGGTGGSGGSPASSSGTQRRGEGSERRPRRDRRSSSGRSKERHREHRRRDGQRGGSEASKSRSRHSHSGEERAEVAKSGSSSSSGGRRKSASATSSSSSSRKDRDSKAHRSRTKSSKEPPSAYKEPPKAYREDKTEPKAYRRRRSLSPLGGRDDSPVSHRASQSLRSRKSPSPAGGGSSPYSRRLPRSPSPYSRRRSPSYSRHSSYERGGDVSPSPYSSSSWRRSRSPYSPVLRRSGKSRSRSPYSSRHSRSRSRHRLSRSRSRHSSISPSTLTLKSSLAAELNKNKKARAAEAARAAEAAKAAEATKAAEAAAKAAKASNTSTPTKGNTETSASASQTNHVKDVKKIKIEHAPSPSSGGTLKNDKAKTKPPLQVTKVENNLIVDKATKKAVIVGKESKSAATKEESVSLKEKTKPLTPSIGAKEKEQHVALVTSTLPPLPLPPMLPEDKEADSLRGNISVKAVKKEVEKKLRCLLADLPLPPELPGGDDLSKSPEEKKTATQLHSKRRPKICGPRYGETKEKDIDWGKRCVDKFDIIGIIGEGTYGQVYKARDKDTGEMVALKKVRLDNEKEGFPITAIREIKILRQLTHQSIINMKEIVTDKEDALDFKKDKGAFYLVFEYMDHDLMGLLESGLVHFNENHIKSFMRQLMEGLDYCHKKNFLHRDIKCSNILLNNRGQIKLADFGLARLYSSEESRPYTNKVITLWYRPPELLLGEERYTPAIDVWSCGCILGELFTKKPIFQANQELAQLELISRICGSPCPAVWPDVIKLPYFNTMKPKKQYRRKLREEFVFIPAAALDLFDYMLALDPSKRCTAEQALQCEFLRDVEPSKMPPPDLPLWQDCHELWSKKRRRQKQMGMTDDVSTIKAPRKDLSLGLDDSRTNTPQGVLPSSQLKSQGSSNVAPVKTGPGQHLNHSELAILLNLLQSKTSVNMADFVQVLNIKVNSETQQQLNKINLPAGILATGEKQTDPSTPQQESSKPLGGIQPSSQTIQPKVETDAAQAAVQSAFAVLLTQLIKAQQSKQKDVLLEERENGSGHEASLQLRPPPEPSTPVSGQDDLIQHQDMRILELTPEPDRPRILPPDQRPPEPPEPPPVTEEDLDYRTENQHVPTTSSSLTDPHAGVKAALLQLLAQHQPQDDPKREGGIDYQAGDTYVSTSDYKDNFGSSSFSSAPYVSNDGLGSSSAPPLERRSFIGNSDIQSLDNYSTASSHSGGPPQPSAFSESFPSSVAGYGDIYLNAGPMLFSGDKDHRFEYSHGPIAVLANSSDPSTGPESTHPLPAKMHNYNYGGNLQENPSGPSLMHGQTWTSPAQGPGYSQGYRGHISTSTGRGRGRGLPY

[5] = biological target: T1, protein kinases (human kinome) (Homo sapiens, UniProt Q9UEE5); conditions: STK17A Q9UEE5
T1 sequence (Q9UEE5 1-414): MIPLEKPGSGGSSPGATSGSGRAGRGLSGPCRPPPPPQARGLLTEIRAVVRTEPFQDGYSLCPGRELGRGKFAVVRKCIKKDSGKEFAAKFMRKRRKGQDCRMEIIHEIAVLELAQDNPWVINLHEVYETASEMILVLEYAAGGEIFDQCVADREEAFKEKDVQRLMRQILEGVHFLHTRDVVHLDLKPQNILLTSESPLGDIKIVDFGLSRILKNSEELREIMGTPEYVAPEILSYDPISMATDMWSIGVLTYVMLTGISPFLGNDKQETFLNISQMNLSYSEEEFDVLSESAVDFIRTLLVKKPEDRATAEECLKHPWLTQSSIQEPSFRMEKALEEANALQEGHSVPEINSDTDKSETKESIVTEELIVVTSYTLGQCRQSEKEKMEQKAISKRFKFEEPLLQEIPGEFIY

[6] = biological target: T2, protein kinases (human kinome) (Homo sapiens, UniProt Q4G0N4); conditions: Accession Q4GON4, direction down
T2 sequence (Q4G0N4 63-442): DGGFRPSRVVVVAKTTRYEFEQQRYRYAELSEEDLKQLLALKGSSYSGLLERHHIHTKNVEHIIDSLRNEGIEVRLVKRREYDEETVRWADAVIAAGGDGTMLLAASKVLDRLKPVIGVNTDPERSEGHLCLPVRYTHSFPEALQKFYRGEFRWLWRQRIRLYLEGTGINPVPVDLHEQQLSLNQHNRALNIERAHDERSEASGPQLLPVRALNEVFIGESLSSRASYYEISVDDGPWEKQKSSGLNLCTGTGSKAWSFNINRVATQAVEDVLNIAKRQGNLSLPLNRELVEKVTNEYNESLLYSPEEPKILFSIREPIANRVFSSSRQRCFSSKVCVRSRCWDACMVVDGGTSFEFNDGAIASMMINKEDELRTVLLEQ

[7] = biological target: protein kinases (human kinome) (Homo sapiens, UniProt Q07912); conditions: for logFC TNK2 (Q07912-1): direction down; for logFC TNK2: TNK2 (Q07912-1)
protein kinases (human kinome) (Homo sapiens, UniProt Q07912), sequence (Q07912 whole entry): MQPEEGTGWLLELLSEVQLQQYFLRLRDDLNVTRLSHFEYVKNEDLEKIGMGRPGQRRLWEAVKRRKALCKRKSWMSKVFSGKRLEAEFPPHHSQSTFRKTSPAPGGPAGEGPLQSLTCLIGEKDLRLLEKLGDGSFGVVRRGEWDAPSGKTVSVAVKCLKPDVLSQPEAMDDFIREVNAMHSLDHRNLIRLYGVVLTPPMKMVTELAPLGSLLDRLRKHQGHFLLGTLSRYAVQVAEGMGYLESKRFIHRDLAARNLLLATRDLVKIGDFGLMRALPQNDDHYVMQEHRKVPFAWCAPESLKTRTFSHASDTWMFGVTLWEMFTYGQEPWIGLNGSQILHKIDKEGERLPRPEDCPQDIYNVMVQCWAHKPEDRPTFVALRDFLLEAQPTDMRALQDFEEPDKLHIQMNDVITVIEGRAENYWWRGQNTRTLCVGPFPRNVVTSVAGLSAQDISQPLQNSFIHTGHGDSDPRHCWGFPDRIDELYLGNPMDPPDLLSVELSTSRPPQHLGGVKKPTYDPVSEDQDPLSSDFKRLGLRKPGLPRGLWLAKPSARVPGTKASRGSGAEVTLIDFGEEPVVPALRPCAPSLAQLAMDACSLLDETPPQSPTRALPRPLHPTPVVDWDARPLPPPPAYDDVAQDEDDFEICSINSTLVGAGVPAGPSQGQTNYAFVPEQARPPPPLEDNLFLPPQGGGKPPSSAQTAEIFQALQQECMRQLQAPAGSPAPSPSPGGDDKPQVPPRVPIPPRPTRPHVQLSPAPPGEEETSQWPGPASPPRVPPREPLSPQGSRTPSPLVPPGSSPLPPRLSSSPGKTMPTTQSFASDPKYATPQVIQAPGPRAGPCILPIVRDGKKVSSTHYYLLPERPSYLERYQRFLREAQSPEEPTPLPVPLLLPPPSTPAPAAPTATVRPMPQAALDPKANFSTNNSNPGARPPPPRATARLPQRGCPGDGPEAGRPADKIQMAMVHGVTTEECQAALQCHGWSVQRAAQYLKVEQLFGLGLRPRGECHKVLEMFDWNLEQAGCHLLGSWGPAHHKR

[8] = biological target: protein kinases (human kinome) (Homo sapiens, UniProt P42684); conditions: for logFC: ABL2 (P42684) protein abundance, degrader vs DMSO, down
protein kinases (human kinome) (Homo sapiens, UniProt P42684), sequence (P42684 whole entry): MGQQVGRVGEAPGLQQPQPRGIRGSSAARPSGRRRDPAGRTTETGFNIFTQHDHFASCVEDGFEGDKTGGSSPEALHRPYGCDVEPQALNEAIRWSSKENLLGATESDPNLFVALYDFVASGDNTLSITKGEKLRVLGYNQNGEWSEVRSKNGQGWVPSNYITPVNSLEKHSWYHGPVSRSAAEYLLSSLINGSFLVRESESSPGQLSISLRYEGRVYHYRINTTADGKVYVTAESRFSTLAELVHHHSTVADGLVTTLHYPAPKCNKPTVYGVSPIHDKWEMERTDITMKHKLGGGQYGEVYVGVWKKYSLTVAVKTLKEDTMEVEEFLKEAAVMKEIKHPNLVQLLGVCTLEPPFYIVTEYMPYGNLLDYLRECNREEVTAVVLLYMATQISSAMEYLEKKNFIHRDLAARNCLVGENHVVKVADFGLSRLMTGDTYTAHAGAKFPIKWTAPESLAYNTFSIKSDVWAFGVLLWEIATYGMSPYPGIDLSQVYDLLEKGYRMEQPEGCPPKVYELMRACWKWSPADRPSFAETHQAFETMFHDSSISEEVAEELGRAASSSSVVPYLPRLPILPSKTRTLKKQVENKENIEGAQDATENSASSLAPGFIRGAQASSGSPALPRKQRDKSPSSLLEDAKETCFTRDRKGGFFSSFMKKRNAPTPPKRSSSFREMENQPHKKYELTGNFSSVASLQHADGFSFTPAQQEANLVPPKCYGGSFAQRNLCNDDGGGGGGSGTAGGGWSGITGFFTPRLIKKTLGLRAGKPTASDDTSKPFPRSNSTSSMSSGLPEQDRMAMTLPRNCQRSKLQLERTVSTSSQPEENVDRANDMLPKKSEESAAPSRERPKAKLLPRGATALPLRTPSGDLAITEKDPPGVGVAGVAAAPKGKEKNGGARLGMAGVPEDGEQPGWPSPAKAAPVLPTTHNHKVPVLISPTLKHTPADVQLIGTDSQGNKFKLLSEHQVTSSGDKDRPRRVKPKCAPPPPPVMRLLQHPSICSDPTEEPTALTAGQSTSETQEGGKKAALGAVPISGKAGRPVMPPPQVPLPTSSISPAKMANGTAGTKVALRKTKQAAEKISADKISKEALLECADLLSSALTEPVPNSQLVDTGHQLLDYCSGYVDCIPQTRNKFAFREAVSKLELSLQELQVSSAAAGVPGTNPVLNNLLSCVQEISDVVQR

[9] = biological target: protein kinases (human kinome) (Homo sapiens, UniProt Q15119); conditions: experiment wp147, 4 uM
[10] = biological target: protein kinases (human kinome) (Homo sapiens, UniProt Q15118); conditions: PDK1 Q15118, experiment wp147
protein kinases (human kinome) (Homo sapiens, UniProt Q15118), sequence (Q15118 29-436): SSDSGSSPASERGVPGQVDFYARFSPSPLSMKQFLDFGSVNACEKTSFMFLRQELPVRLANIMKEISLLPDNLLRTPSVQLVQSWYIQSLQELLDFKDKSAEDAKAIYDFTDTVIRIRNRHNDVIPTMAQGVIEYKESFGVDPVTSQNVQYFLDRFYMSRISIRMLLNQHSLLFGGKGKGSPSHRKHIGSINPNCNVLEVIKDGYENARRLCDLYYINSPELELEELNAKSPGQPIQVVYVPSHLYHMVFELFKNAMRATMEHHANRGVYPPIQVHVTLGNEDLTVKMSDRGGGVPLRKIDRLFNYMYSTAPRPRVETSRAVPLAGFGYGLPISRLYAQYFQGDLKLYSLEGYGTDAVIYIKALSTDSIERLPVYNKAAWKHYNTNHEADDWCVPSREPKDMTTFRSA

In the case of `CC(C)S(=O)(=O)c1ccccc1Nc1nc(Nc2ccc(N3CCN(CCOCCNC(=O)CNc4cccc5c4C(=O)N(C4CCC(=O)NC4=O)C5=O)CC3)cc2)ncc1Cl` (stereo not shown) [SK.3.91], the logFC [1] is reported as −0.5025, the logFC ([1]; direction down) is reported as −0.5025 and the “logFC CDK2 (P24941-1)” value ([2]; Experiment wp103) is reported as −0.4588. The “logFC CDK2 (P24941-1)” value ([2]; Experiment wp105, direction of change down) was −0.4593, the “logFC CDK2 (P24941-1)” value ([2]; Experiment wp107) was −0.7583 and the “logFC CDK2 (P24941-1)” value ([2]; Experiment wp160, 2 hr) was −0.383. For the same compound, the “logFC CDK2 (P24941-1)” value ([2]; Experiment wp172) was −0.8996, the “logFC CDK2 (P24941-1)” value ([2]; experiment wp016) was −0.5115 and the “logFC CDK2 (P24941-1)” value ([2]; experiment wp016, 1 uM) was −1.047. The “logFC CDK2 (P24941-1)” value ([2]; experiment wp016, 1 uM, direction of change down) was −1.047, the “logFC CDK2 (P24941-1)” value ([2]; experiment wp016, direction of change down) was −0.5115 and the “logFC CDK2 (P24941-1)” value ([2]; experiment wp103, direction of change down) was −0.4588. For the same compound, the “logFC CDK2 (P24941-1)” value ([2]; experiment wp105) was −0.4593, the “logFC CDK2 (P24941-1)” value ([2]; experiment wp107, direction of change down) was −0.7583 and the “logFC CDK2 (P24941-1)” value ([2]; experiment wp133, 2 hr) was −0.4306. The “logFC CDK2 (P24941-1)” value ([2]; experiment wp133, 2 hr, direction of change down) was −0.4306, the “logFC CDK2 (P24941-1)” value ([2]; experiment wp133, 4 hr) was −0.6908 and the “logFC CDK2 (P24941-1)” value ([2]; experiment wp133, 4 hr, direction of change down) was −0.6908. For the same compound, the “logFC CDK2 (P24941-1)” value ([2]; experiment wp160, 2 hr, direction of change down) was −0.383, the “logFC CDK2 (P24941-1)” value ([2]; experiment wp160, 4 hr) was −0.647 and the “logFC CDK2 (P24941-1)” value ([2]; experiment wp160, 4 hr, direction of change down) was −0.647. The “logFC CDK2 (P24941-1)” value ([2]; experiment wp172, direction of change down) was −0.8996, the “logFC COQ8A (Q8N160-1)” value ([3]; experiment wp160, 1 hr) was −0.7959 and the “logFC COQ8A (Q8NI60-1)” value ([3]; experiment wp160, 1 hr) was −0.7959. The “logFC CDK13” value ([4]; experiment wp016) was −0.6046, the “logFC CDK13” value ([4]; experiment wp016, 1 uM) was −0.5749 and the “logFC CDK13” value ([4]; experiment wp103) was −0.4833. The “logFC CDK13” value ([4]; experiment wp105) was −0.4649, the “logFC CDK13” value ([4]; experiment wp107) was −0.7112 and the “logFC CDK13” value ([4]; experiment wp133, 4 hr) was −0.5562. The “logFC CDK13” value ([4]; experiment wp160, 4 hr) was −0.4805, the “logFC CDK13” value ([4]; experiment wp172) was −0.859 and the logFC ([4]; CDK13 (Q14004-1), experiment wp016, 1 uM) was −0.5749. The “logFC CDK13 (Q14004-1)” value ([4]; Experiment wp172) was −0.859, the “logFC CDK13 (Q14004-1)” value ([4]; experiment wp016) was −0.6046 and the “logFC CDK13 (Q14004-1)” value ([4]; experiment wp103) was −0.4833. The “logFC CDK13 (Q14004-1)” value ([4]; experiment wp105) was −0.4649, the “logFC CDK13 (Q14004-1)” value ([4]; experiment wp107) was −0.7112 and the “logFC CDK13 (Q14004-1)” value ([4]; experiment wp133, 4 hr) was −0.5562. The “logFC CDK13 (Q14004-1)” value ([4]; experiment wp160, 4 hr) was −0.4805, the logFC ([5]; experiment wp016, 1 uM) was −0.7032 and the “logFC STK17A” value ([5]; experiment wp016, 1 uM) was −0.7032. The logFC ([5]; experiment wp103) was −0.6201, the “logFC STK17A” value ([5]; experiment wp103) was −0.6201 and the logFC ([5]; experiment wp107) was −0.6984. For the same compound, the “logFC STK17A” value ([5]; experiment wp107) was −0.6984, the logFC ([5]; experiment wp133, 4 hr) was −0.5458 and the “logFC STK17A” value ([5]; experiment wp133, 4 hr) was −0.5458. For the same compound, the logFC ([5]; experiment wp172) was −0.3963, the “logFC STK17A” value ([5]; experiment wp172) was −0.3963 and the “logFC NADK2” value ([6]; experiment wp160, 1 hr) was −0.698. The “logFC TNK2 (Q07912-1)” value ([7]; Experiment wp133, 2 hr) was −1.053, the “logFC TNK2 (Q07912-1)” value ([7]; Experiment wp133, 4 hr) was −2.261 and the “logFC TNK2” value ([7]; experiment wp133, 2 hr) was −1.053. For the same compound, the “logFC TNK2” value ([7]; experiment wp133, 4 hr) was −2.261, the logFC ([8]; 1 uM) was −1.077 and the logFC ([8]; 2 hr) was −0.3453. The logFC ([8]; 4 hr) was −0.8519 and −0.7658, the “logFC ABL2 (P42684)” value ([8]; Experiment wp107) was −1.032 and the “logFC ABL2 (P42684)” value ([8]; experiment wp016) was −0.4963. For the same compound, the “logFC ABL2 (P42684)” value ([8]; experiment wp016, 1 uM) was −1.077, the “logFC ABL2 (P42684)” value ([8]; experiment wp133, 2 hr) was −0.3453 and the “logFC ABL2 (P42684)” value ([8]; experiment wp133, 4 hr) was −0.8519. The “logFC ABL2 (P42684)” value ([8]; experiment wp160, 4 hr) was −0.7658.

`CC(C)(C)c1nc(-c2cccc(NS(=O)(=O)c3c(F)cccc3F)c2F)c(-c2ccnc(NCCOCCNC(=O)CCOCCOCCNc3cccc4c3C(=O)N(C3CCC(=O)NC3=O)C4=O)n2)s1` (stereo not shown) [DD.03.106] was tested, and the “logFC CDK2 (P24941-1)” value ([2]; Experiment wp147, 2 uM) was −0.4932, the “logFC CDK2 (P24941-1)” value ([2]; Experiment wp147, 4 uM) was −0.5248 and the “logFC CDK2 (P24941-1)” value ([2]; experiment wp137) was −0.3437. The “logFC CDK2 (P24941-1)” value ([2]; experiment wp137, direction of change down) was −0.3437, the “logFC CDK2 (P24941-1)” value ([2]; experiment wp147, 1 uM) was −0.3285 and the “logFC CDK2 (P24941-1)” value ([2]; experiment wp147, 1 uM, direction of change down) was −0.3285. The “logFC CDK2 (P24941-1)” value ([2]; experiment wp147, 2 uM, direction of change down) was −0.4932, the “logFC CDK2 (P24941-1)” value ([2]; experiment wp147, 4 uM, direction of change down) was −0.5248 and the “logFC COQ8A (Q8N160-1)” value ([3]; experiment wp147, 1 uM) was −0.3548. The “logFC COQ8A (Q8NI60-1)” value ([3]; experiment wp147, 1 uM) was −0.3548, the “logFC COQ8A (Q8N160-1)” value ([3]; experiment wp147, 4 uM) was −0.8159 and the “logFC COQ8A (Q8NI60-1)” value ([3]; experiment wp147, 4 uM) was −0.8159. The “logFC NADK2” value ([6]; experiment wp147, 4 uM) was −0.6976, the “logFC PDK2 (Q15119-1)” value [9] was −0.727 and the logFC ([10]; 1 uM) was −0.3363. For the same compound, the “logFC PDK1” value ([10]; 1 uM) was −0.3363, the logFC ([10]; 4 uM) was −0.6592 and the “logFC PDK1” value ([10]; 4 uM) was −0.6592.
